Source: paper PMC7515946, “Targeting of Perforin Inhibitor into the Brain Parenchyma Via a Prodrug Approach Can Decrease Oxidative Stress and Neuroinflammation and Improve Cell Survival” (Molecular Neurobiology, 2020)
“And” between values parts separate entries of the source, which are not always exact repeats. Identical values can stand only once. “Also recorded” adds a separate entry of the source.

Columns and labels:
caspase-3/-7 = experiment: Caspase-3/-7 in brain of LPS-induced neuroinflammation mice; format: in vivo, mouse; details: for Brain caspase-3/-7 amounts, preventative treatment: 30 μmol/kg for 4 days together with LPS 250 μg/kg for 3 days; for Brain caspase-3/-7 amounts, preventative treatment / Brain caspase-3/-7 amounts, curative treatment: relative to control; for Brain caspase-3/-7 amounts, curative treatment: 30 μmol/kg on days 3 and 4, LPS 250 μg/kg for 3 days
Description: Adult male C57BL/6JOlaHsd mice (Jackson Laboratories, Bar Harbor, ME, USA) were supplied by Envigo (Venray, Netherlands). Mice were housed in stainless steel cages on a 12-h light (07:00–19:00) and 12-h dark (19:00–07:00) cycle at an ambient temperature of 22 ± 1 °C with a relative humidity of 50–60%. All experiments were carried out during the light phase. Tap water and food pellets (Lactamin R36; Lactamin AB, Södertälje, Sweden) were available ad libitum. Neuroinflammation was induced by the treatment with LPS 250 μg/kg i.p once per day for 3 consequent days followed by decapitation on the 4th day. The animals were allocated to one of four treatment groups (n = 6 per group): (1) LPS-treated mice, (2) mice treated with LPS and the studied compound (30 μmol/kg; i.v.) for 3 days and 120 min before the decapitation on the 4th day (preventative efficacy), (3) mice treated with LPS for 3 days and with the studied compound (30 μmol/kg; i.v.) only for the last 2 days, and (4) control mice treated with 0.9% NaCl solution i.p. once per day for 3 days. After decapitation, mouse blood and brain samples were collected. […] The plasma layer was centrifuged again at 12,000 × g to remove the platelets. Plasma was stored at − 80 °C until analysis. The brains were snap-frozen in liquid nitrogen and stored at − 80 °C until analysis.
The effects of the compounds on the enzyme activity of caspase-3 and caspase-7 were evaluated from the snap-frozen mouse brain. Pieces of tissues (n = 3) were homogenized in 50 mM Tris–HCl (pH 7.4) 1:10 (w/v) with a bead mill homogenizer. […] The enzyme activity was measured with an Apo-ONE Homogenous Caspase-3/7 Assay kit (Promega Corporation, Madison, WI, USA) according to the manufacturer’s instruction. The assay was performed on 96-well plates, each sample having 3 replicates. Each of the sample wells contained 100 μL of the previously collected supernatant and 100 μL of the prepared Apo-ONE reagent. The blank measurement was carried out with the homogenization buffer and Apo-ONE reagent. Once all the samples and reagents were pipetted in the wells, the plate was carefully shaken for 30 s and left for incubation in dark at room temperature. The fluorescence was measured after the incubation with an EnVision 2104 Multilabel Reader (PerkinElmer, Waltham, MA, USA), with λex 499 nm and λem 521 nm. The measurement was repeated on multiple time points between 0.5 and 24 h.

[1] = target: T1, purified human β-site amyloid precursor protein (APP) cleaving enzyme 1 (BACE1) (Homo sapiens, UniProt P56817); experiment: BACE1 FRET inhibition assay; format: biochemical; details: 1 and 10 μM, respectively, 30 min
T1 construct: purchased AnaSpec, Inc. (Fremont, CA, USA), SensoLyte 520 BACE1 Assay kit
Excerpt: A fluorometric assay was used to screen the inhibitory effect of the studied compounds on purified human β-site amyloid precursor protein (APP) cleaving enzyme 1 (BACE1) using a fluorescence resonance energy transfer (FRET) peptide technique (SensoLyte© 520 BACE1 Assay kit, AnaSpec, Inc., Fremont, CA, USA) according to the manufacturer’s protocol. […] The sequence of the FRET peptide has been derived from the β-secretase cleavage site of β-amyloid precursor protein (APP) with Swedish mutation, which enhances β-secretase to process APP resulting in an early onset of AD. Thus, active β-secretase cleaved the FRET substrate into two separate fragments resulting in the release of HiLyte™ Fluor 488 fluorescence that was measured by the Envision plate reader (EnVision, Perkin Elmer, Waltham, MA, USA) at λex 490 nm and λem 520 nm.

[2] = tested on: MCF-7 human breast adenocarcinoma cells; experiment: Cell viability of MCF-7 cells with cisplatin co-treatment (resazurin); format: cell-based; details: 10–400 μM together with 100 μM cisplatin, 72 h
LAT1 [3] = target: T2, LAT1 (Mus musculus, UniProt Q9Z127); experiment: Ability to bind to LAT1: inhibition of [14C]-L-leucine uptake in astrocytes; format: cell-based; details: mouse primary astrocytes, 0.76 μM [14C]-L-leucine, 5 min, 37 °C
T2 construct: endogenous in cells; host or cells: mouse primary astrocytes (C57BL/6JOlaHsd), cortex and hippocampi
Description: For the transporter-binding studies, the astrocytes were seeded on 24-well plates with a density of 10 × 10^4 cells/well 3 days before the experiments. After removal of the culture medium, the cells were carefully washed with pre-warmed HBSS (Hank’s balanced salt solution) containing choline chloride (125 mM), KCl (4.8 mM), MgSO4 (1.2 mM), KH2PO4 (1.2 mM), CaCl2 (1.3 mM), glucose (5.6 mM), and HEPES (25 mM) adjusted to pH 7.4 with 1 M NaOH. The cells were pre-incubated with 500 μL of pre-warmed HBSS at 37 °C for 5 min before the experiments. To study the ability of studied compounds to inhibit the uptake of a known LAT1 substrate, the cells were incubated at 37 °C for 5 min with an uptake buffer (HBSS, 250 μL) containing 0.76 μM (0.25 mCi/mL or […]) of [^14C]-L-leucine (PerkinElmer, Waltham, MA, USA) and 0.1–1000 μM of studied compound (or HBSS as blank). After incubation, the uptake was stopped by adding 500 μL of ice-cold HBSS, and the cells were washed two times with ice-cold HBSS (2 × 500 μL). The cells were then lysed with 500 μL of NaOH (0.1 M) for 60 min and the lysate was mixed with 3.5 mL of Emulsifier-Safe cocktail (Ultima Gold, PerkinElmer, Waltham, MA, USA). The radioactivity in the cells was measured by liquid scintillation counting (MicroBeta^2 counter, PerkinElmer Waltham, MA, USA). Half of the maximum inhibitory concentration (IC50) values were calculated by nonlinear regression analysis (fitting the curve to log (concentration) vs. remaining normalized viability).

[4] = design: method as in PMID 27266990; details: during 5 h incubation; cited from earlier work
LAT1 [5] = tested on: LAT1; design: method as in PMID 31610281; details: human breast adenocarcinoma cells (MCF-7); read-out: IC50 of [14C]-L-leucine uptake (LAT1 binding) in MCF-7 cells; cited from earlier work
[6] = design: method as in PMID 31492955; details: neurons, astrocytes, and microglia homogenates; cited from earlier work

T2 sequence (Q9Z127 whole entry): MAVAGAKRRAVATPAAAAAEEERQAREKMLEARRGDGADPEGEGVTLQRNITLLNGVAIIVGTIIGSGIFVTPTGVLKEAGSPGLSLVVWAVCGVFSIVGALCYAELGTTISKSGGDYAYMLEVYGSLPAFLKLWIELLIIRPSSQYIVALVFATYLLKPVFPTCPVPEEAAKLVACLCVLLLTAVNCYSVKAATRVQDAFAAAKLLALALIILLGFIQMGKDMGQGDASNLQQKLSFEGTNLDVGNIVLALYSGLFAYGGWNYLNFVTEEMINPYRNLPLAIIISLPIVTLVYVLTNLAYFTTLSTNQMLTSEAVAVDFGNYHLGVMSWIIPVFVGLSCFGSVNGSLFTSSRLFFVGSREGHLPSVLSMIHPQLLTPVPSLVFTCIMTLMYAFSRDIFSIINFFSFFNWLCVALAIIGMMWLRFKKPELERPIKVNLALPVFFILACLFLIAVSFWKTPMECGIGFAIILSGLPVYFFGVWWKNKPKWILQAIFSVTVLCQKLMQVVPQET
T2 sequence (P10852 whole entry partner): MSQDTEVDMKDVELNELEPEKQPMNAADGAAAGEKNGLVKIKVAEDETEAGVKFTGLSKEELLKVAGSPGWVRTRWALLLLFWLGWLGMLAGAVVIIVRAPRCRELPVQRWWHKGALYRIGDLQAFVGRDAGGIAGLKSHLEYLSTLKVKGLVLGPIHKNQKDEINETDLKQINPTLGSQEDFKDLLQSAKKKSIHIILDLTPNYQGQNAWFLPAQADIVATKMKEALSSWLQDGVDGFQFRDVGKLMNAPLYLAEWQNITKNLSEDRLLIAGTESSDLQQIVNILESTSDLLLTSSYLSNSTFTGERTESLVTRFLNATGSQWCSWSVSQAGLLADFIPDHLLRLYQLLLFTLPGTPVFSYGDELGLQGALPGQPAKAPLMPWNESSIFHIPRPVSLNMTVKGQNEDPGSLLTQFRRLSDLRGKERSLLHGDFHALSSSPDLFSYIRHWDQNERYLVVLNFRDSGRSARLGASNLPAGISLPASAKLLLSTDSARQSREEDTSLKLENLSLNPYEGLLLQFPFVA
T1 sequence (P56817 22-501 limits assumed): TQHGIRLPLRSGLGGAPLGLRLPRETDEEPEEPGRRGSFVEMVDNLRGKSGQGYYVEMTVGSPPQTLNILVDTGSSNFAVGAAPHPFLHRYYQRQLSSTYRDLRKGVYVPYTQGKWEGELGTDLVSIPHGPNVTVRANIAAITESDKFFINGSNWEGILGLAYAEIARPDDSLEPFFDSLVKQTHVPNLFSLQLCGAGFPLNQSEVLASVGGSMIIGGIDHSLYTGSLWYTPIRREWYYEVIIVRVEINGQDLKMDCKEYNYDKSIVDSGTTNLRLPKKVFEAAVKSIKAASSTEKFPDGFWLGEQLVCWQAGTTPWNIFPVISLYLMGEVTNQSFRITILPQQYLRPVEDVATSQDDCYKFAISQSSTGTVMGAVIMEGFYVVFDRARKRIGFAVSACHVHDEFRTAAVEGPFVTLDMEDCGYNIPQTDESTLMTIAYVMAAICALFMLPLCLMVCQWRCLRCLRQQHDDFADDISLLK

| Compound | Brain caspase-3/-7 amounts, preventative treatment (caspase-3/-7) [%] | Brain caspase-3/-7 amounts, curative treatment (caspase-3/-7) [%] | Inhibition of BACE1 activity [1] | Reversal of cisplatin-induced effects on MCF-7 cell viability [2] | IC50 in astrocytes (inhibition of [14C]-L-leucine uptake) (LAT1 [3]) | Prodrug bioconverted in mouse brain S9 subcellular fraction [4] | Brain caspase-3/-7 levels after prodrug treatment (caspase-3/-7; LPS-induced mice, LPS level given as 117%) | Reduction of brain caspase-3/-7 levels (caspase-3/-7; as stated in the discussion (from 117 to 72–74%)) | IC50 (LAT1 [5]) [µM] | IC50 (LAT1 [3]) | Half-lives in brain cell homogenates [6] [h] |
| --- | --- | --- | --- | --- | --- | --- | --- | --- | --- | --- | --- |
| O=C1OCc2cc(-c3ccc(-c4ccc(CO)cc4)s3)ccc21 [PFI] | 156 | 105 | 71–96% | not able to revert the cisplatin-induced effects | did not exhibit any interaction with LAT1; also recorded: No inhibition | – | – | – | – | – | – |
| N[C@H](Cc1cccc(C(=O)OCc2ccc(-c3ccc(-c4ccc5c(c4)COC5=O)s3)cc2)c1)C(=O)O [PFI-PD] | 68 | 63 | – | able to revert the cisplatin-induced effects | – | approximately 50% | 72–74% | over 40% | 1.54 | 4 µM and 3.5 µM | 4 to 6 |
